In US11655244B2, “Carbazole compounds and methods of use thereof” (GSNO Therapeutics, Inc, priority 2017, dated 2023):

Tests used:
[1] = target: T1, GSNOR enzyme (Homo sapiens, UniProt P11766); assay: GSNOR inhibition assay (rate of NADH consumption, 340 nm absorbance); assay type: biochemical; settings: Table 2b; test compound 20 uM; read-out: % GSNOR Inhibition at 20 uM
Procedure: The following compounds were also prepared based on the methods described herein, using the appropriate starting materials. Table 2a and Table 2b also provides the % GSNOR inhibition at 20 μM of compounds described herein. […] The buffer was 100 mM phosphate buffer (pH 7.4.) The rate of NADH consumption for each well was determined by ultraviolet spectroscopy. Plates were read on a Molecular Devices Spectra Max UV/Visible Spectrophotometer/plate reader and the change in 340 nm absorbance at 25° C. was recorded for each well at 10 sec intervals over the duration of the recording period (2˜5 minutes). The rate was measured from the linear portion of the curve. Final test compound concentration was 20 μM. The mean % inhibition from 3 test compound wells and 5 control wells was measured as the percentage of the mean no compound+enzyme−the mean no enzyme, no compound control.

[2] = test system: IL-6; assay: LPS/cytokine assay (mouse inflammation assay), IL-6; assay type: in vivo, CD-1 male mice; settings: CD-1 male mice; IP or IV; cytokine typically 6 hrs after LPS
Procedure: Table 2b also includes additional biological data of compounds described herein. The LPS/cytokine Assay was carried out in CD-1 male mice. The assay measured the level of various cytokines, including IL-6, IL-17, and IL-23, after induction by bacterial liposaccharide (LPS). Compounds were dosed by IP or IV routes of administration at varying times before and after LPS and the cytokine concentrations were measured at varying times, typically 6 hrs, after LPS by standard methods using ELISA kits.
BIOLOGICAL TESTING: Compounds 10 and 17 from Table 1 were tested in a mouse inflammation assay. Briefly, CD-1 mice were dosed with compound, 12 hrs before injecting mice I.P. with the potent cytokine inducer, bacterial lipopolysaccharide (LPS). The mice were euthanized 6 hrs after the LPS was injected and their serum prepared by standard methods. The concentration of IL-6 in the serum of each experimental animal was measured using an IL-6 ELISA kit from Enzo. The compounds tested were active.
This LPS/cytokine assay was carried out in healthy mice and measured the level of cytokine IL-6, IL-17, and 23 induction by LPS. Compounds are dosed (either orally (“p.o.”) or intravenously (“i.v.”) at varying times before and after LPS, and the cytokines are measured at varying times after LPS. The effect of the tested compounds (Table 5) on IL-6 release is shown in FIG. 7. The effect of the tested compounds (Table 6) on IL-17 an IL-23 release is shown in FIG. 11 and FIG. 12, respectively.

[3] = target: T1, GSNOR enzyme; assay: GSNOR inhibition assay (rate of NADH consumption, 340 nm absorbance); assay type: biochemical; settings: Table 2b; read-out: IC50 Micromolar
[4] = test system: Bleomycin-induced idiopathic pulmonary fibrosis model in male C57BL/6 mice; assay: Bleomycin-induced idiopathic pulmonary fibrosis model; assay type: in vivo; settings: 100 mg/kg, p.o., b.i.d., from day 14 to 28
Procedure: Compound 17 was made-up fresh every 4 days. A required amount of the test compound was weighed in a glass vial and the purity factor was calculated. A stock solution of 1 mg/ml (10 mg/kg) was made in distilled water (pH 8) and the subsequent 3 and 1 mg/kg doses (concentrations) were obtained by serial dilution of the 1 mg/ml stock solution. A clear and transparent solution was observed. Animals were dosed with Compound 17 at 1 mg/kg, 3 mg/kg and 10 mg/kg, i.p (intraperitoneal), once daily from day 14 to 28.
Pirfenidone was weighed in a glass vial and suspended in 0.5% methyl cellulose to obtain a 10 mg/ml formulation. A clear homogenous suspension was observed. Animals were dosed with Pirfenidone at 100 mg/kg, p.o., b.i.d., from day 14 to 28.

T1 sequence (P11766 whole entry): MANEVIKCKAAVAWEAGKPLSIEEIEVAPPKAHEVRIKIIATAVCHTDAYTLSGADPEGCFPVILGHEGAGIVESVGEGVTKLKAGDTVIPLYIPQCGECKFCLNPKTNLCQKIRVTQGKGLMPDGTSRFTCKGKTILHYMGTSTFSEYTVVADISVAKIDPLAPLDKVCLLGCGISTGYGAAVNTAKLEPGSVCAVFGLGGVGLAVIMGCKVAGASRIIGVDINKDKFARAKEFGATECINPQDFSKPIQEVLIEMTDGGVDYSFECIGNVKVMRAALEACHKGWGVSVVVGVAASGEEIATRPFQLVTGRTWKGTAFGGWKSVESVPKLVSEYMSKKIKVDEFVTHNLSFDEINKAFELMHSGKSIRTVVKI

Question: Which results are given for `N#CCCCCn1c2ccc(-n3ccnc3)cc2c2ccc(CCC(=O)O)cc21` [Compound 31]?
Answer: inhibition at 20 µM [1]: 92.9%; LPS/IL6 Lowest tested active [2]: 0.3 mg/kg; IC50 [3]: < 1000 nM

Question: How did the “pulmonary fibrosis (Ashcroft score and percentage collagen proportionate area) vs disease control” value [4] turn out when `Cc1ccc(=O)n(-c2ccccc2)c1` [Pirfenidone, reference compound] was run?
Answer: notable mitigation of pulmonary fibrosis
